“And” between values parts separate entries of the source, which are not always exact repeats. Equal entries are not always repeated. “Also recorded” adds a separate entry of the source.
Assays:
[1] = Phase 2 study: adverse events on treatment; assay type: in vivo, human
Source text: (§1) Diagnosis of primary, post-essential thrombocythemia, or post-polycythemia vera MF was required; other eligibility criteria included measurable splenomegaly (by magnetic resonance imaging [MRI]), active MF-related systemic symptoms and platelet count ≥75×10^9/L. Primary endpoints were: spleen response rate (% achieving ≥35% spleen volume reduction [SVR] by MRI at week 24); and symptom response rate (% achieving ≥50% reduction in total symptom score [TSS] per the Myelofibrosis Symptom Assessment Form (MFSAF) v2 at week 24). Key secondary endpoints included safety, overall survival (OS), treatment response, molecular response, and pharmacokinetic and pharmacodynamic relationships.

[2] = test system: intermediate-2 or high-risk myelofibrosis (MF) relapsed/refractory to JAK inhibitor; assay: Phase 2 study: spleen response (spleen volume reduction, SVR, by MRI at week 24); assay type: in vivo, human
Source text: as §1

[3] = test system: intermediate-2 (int-2) or high-risk myelofibrosis (MF); details: 33-patient pilot study, Tefferi 2015; cited from earlier work
[4] = test system: intermediate-2 or high-risk myelofibrosis (MF) relapsed/refractory to JAK inhibitor; assay: Phase 2 study: symptom response (total symptom score, TSS, MFSAF v2 at week 24); assay type: in vivo, human; details: 9.4 mg/kg
Source text: as §1

telomerase activity = assay: Pharmacodynamics: telomerase activity (TA) reduction from baseline in study subjects; assay type: in vivo, human; details: for subjects with Telomerase Activity >30% reduction from baseline / subjects with Telomerase Activity >50% reduction from baseline: both arms
Source text: In other embodiments of the invention, telomerase activity and level of hTERT expression in biological samples obtained from patients can be determined to evaluate pharmacodynamic effects and/or monitor patients being treated with a telomerase inhibition. The telomerase activity can be measured using the TRAP (Telomeric Repeat Amplification Protocol) telomerase activity assay. The level of hTERT expression can be determined by measuring the level of hTERT RNA expression in the cells in the biological sample using northern blots or serial analysis of gene expression (SAGE) or other methods.
(§2) Telomerase activity and hTERT was analyzed to evaluate pharmacodynamic effects for imetelstat.

hTERT RNA expression = assay: Pharmacodynamics: hTERT RNA level reduction from baseline, whole blood; assay type: in vivo, human; details: both arms
Procedure: as §2

[5] = test system: various cancer cell lines and tumor xenografts in mice; details: cited from earlier work
[6] = test system: patients with essential thrombocythemia; details: phase 2, essential thrombocythemia; cited from earlier work
human telomerase = details: Asai 2003; Herbert 2005; cited from earlier work
[7] = test system: intermediate-2 or high-risk myelofibrosis (MF) relapsed/refractory to JAK inhibitor; assay: Phase 2 study: overall survival (OS); assay type: in vivo, human
Source text: as §1

[8] = 9.4 mg/kg, all with baseline TL data, N = 53
[9] = all with baseline TL data, N = 53
[10] = Spleen Response at wk 24 by IRC: No
[11] = Spleen Response at wk 24 by IRC: Yes
[12] = 9.4 mg/kg arm, Non-TN (MUT), second clinical cutoff
[13] = 9.4 mg/kg arm, Triple Negative (TN), second clinical cutoff
[14] = 4.7 MG/KG, all subjects with baseline TL (N 40)
[15] = 4.7 MG/KG, all subjects with baseline TL (N 40), first clinical cutoff
[16] = 4.7 MG/KG, baseline TL <=Median Value
[17] = 4.7 MG/KG, baseline TL >Median Value
[18] = 9.4 MG/KG, all subjects with baseline TL (N 53)
[19] = 9.4 MG/KG, baseline TL <=Median Value
[20] = 9.4 MG/KG, baseline TL >Median Value

## imetelstat: 13-mer oligonucleotide that targets the RNA template of human telomerase; first-in-class telomerase inhibitor (TAGGGTTAGACAA; 5' palmitoyl amidopropyl, thio-phosphoramidate, sodium salt, further chemistry not given here)
[1]
  Imetelstat-related hepatic toxicities, confirmed by independent Hepatic Review Committee: not observed
[2]; 9.4 mg/kg
  responses (SVR or TSS) in patients with HMR having greater than one mutation: responses were observed
[2]; 9.4 mg/kg arm, week 24
  rate of response (SVR or TSS), LMR or HMR with only 1 mutation compared to HMR with more than 1 mutations: enriched
  rate of response (SVR or TSS), TN group compared to Non-TN group: enriched
  rate of response (SVR or TSS), shorter baseline TL compared to longer TL: enriched; also recorded: higher rate of response
[2]; 9.4 mg/kg, Longer TL (>Median value), 24 subjects
  subjects with SVR >= 35% at week 24 by IRC, No: 23 (92.7%)
[2]; 9.4 mg/kg, Shorter TL (<= Median value), 29 subjects
  subjects with SVR >= 35% at week 24 by IRC, No: 24 (82.75%)
[2]; [8]
  subjects with SVR >= 35% at Week 24 by IRC, Yes: (10.5%)
  subjects with SVR >= 35% at week 24 by IRC, No: (89.5%)
[3]
  clinical activity and safety profile: Clinical activity and an acceptable safety profile
[4]; Longer TL (>Median value), 24 subjects
  subjects with TSS >= 50% decrease at week 24, No: 18 (75%)
[4]; Shorter TL (<= Median value), 29 subjects
  subjects with TSS >= 50% decrease at week 24, No: 19 (65.6%)
[4]; [9]
  subjects with TSS >= 50% decrease at week 24, No: (69.8%)
  subjects with TSS >= 50% decrease at week 24, Yes: (30.2%)
Telomerase activity; 9.4 mg/kg arm vs […] arm
  PD effect (telomerase activity and hTERT RNA reduction), 9.4 vs […]: dose-dependent PD effect
Telomerase activity; 4.7 MG/KG, 34 subjects with baseline
  subjects achieving TA >=30% decrease from baseline at any timepoint: 14 (41.2%)
Telomerase activity; 9.4 MG/KG, 45 subjects with baseline
  subjects achieving TA >=30% decrease from baseline at any timepoint: 28 (62.2%)
Telomerase activity; [10]
  subjects with Telomerase Activity >30% reduction from baseline: 41/70 (58.6%)
  subjects with Telomerase Activity >50% reduction from baseline: 34/70 (48.6%)
Telomerase activity; [11]
  subjects with Telomerase Activity >30% reduction from baseline: 3/4 (75%)
  subjects with Telomerase Activity >50% reduction from baseline: 2/4 (50%)
Telomerase activity; TSS Response at wk 24: No
  subjects with Telomerase Activity >30% reduction from baseline: 29/56 (51.8%)
  subjects with Telomerase Activity >50% reduction from baseline: 24/56 (42.9%)
Telomerase activity; TSS Response at wk 24: Yes
  subjects with Telomerase Activity >30% reduction from baseline: 15/18 (83.3%)
  subjects with Telomerase Activity >50% reduction from baseline: 12/18 (66.7%)
hTERT RNA expression; TSS Response at wk 24: No
  subjects with hTERT>50% reduction from baseline: 45/81 (55.6%)
hTERT RNA expression; TSS Response at wk 24: Yes
  subjects with hTERT>50% reduction from baseline: 15/24 (62.5%)
[5]
  telomerase activity and cell proliferation: inhibits telomerase activity and cell proliferation
[6]
  JAK2 V617F and CALR mutant allele burdens: significant reduction
  platelet-lowering activity: platelet-lowering activity
Human telomerase
  inhibition of telomerase enzymatic activity: potent competitive inhibitor
[7]; 9.4 mg/kg arm
  OS trend, shorter baseline TL (<= median TL): better OS trend
[7]; [12]
  Median survival, months (95% CI): 24.6 (19.7, NE) months
  Percentage of Subjects Who Died: 21/41 (51.2%)
[7]; 9.4 mg/kg arm, Non-TN subjects, first clinical cutoff
  Median survival, months (95% CI): 23.6 months
[7]; 9.4 mg/kg arm, Non-TN vs TN, second clinical cutoff
  OS HR (Hazard Ratio) (95% CI): 2.60 (0.89, 7.59)
[7]; 9.4 mg/kg arm, TN subjects, first clinical cutoff
  Median survival, months (95% CI): not estimable
[7]; [13]
  Median survival, months (95% CI): NE (23.2, NE)
  Percentage of Subjects Who Died: 4/16 (25.0%)
[7]; [14]
  18-months survival rate % (95% CI): 68.2 %
  24-months survival rate % (95% CI): 39.6 %
[7]; [15]
  Number of events (OS): 20
  Overall Survival (months) Median (95% CI): 22.3 (18.2, NE) months
[7]; [16]
  18-months survival rate % (95% CI): 76.7 %
  24-months survival rate % (95% CI): 34.1 %
[7]; 4.7 MG/KG, baseline TL <=Median Value, first clinical cutoff
  Number of events (%) (OS): 10(25.0%)
[7]; [17]
  18-months survival rate % (95% CI): 61.0 %
  24-months survival rate % (95% CI): 46.6 %
[7]; 4.7 MG/KG, baseline TL >Median Value, first clinical cutoff
  Number of events (%) (OS): 10(25.0%)
[7]; 4.7 MG/KG, longer baseline TL (>Median Value), first clinical cutoff
  Overall Survival (months) Median (95% CI): 22.3 (16.6, NE) months and 22.3 months
[7]; 4.7 MG/KG, shorter baseline TL (<=Median Value), first clinical cutoff
  Overall Survival (months) Median (95% CI): 20.3 (17.2, NE) months and 20.3 months
[7]; [18]
  18-months survival rate % (95% CI): 75.9 %
  24-months survival rate % (95% CI): 54.2 %
[7]; 9.4 MG/KG, all subjects with baseline TL (N 53), first clinical cutoff
  Number of events (OS): 18
[7]; [19]
  18-months survival rate % (95% CI): 81.2 %
  24-months survival rate % (95% CI): 59.3 %
[7]; 9.4 MG/KG, baseline TL <=Median Value, first clinical cutoff
  Number of events (%) (OS): 8(15.1%)
[7]; [20]
  18-months survival rate % (95% CI): 69.8 %
  24-months survival rate % (95% CI): 47.6 %
[7]; 9.4 MG/KG, baseline TL >Median Value, first clinical cutoff
  Number of events (%) (OS): 10(18.9%)
[7]; 9.4 MG/KG, longer baseline TL (>Median Value), first clinical cutoff
  Overall Survival (months) Median (95% CI): 22.8 months
[7]; 9.4 MG/KG, shorter baseline TL (<=Median Value), first clinical cutoff
  Overall Survival (months) Median (95% CI): not estimable

Source: patent US20200063214A1, “METHODS OF IDENTIFYING PATIENTS LIKELY TO BENEFIT FROM TREATMENT WITH A TELOMERASE INHIBITOR” (Geron Corporation, priority 2018, published 2020)
